Data from article PMC9025901, “New Genetic Bomb Trigger: Design, Synthesis, Molecular Dynamics Simulation, and Biological Evaluation of Novel BIBR1532-Related Analogs Targeting Telomerase against Non-Small Cell Lung Cancer” (Pharmaceuticals, 2022).

Legend:
telomerase = target: T1, telomerase (Homo sapiens, UniProt O14746); experiment: TRAP / RTQ-TRAP telomerase activity assay in A549 cell-free lysates; type: biochemical; details: telomerase inhibition, mean ± SEM;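 also: telomerase activity measured in cell-free extracts of human A549 epithelial lung carcinoma cells, tested across a range of inhibitor concentrations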
T1 construct: A549 cells (human epithelial cell lung carcinoma, ATCC, Manassas, VA) were lysed in; host or cells: A549 cell lysate (CHAPS extract, 5 µg total protein)
T1 sequence (O14746 whole entry): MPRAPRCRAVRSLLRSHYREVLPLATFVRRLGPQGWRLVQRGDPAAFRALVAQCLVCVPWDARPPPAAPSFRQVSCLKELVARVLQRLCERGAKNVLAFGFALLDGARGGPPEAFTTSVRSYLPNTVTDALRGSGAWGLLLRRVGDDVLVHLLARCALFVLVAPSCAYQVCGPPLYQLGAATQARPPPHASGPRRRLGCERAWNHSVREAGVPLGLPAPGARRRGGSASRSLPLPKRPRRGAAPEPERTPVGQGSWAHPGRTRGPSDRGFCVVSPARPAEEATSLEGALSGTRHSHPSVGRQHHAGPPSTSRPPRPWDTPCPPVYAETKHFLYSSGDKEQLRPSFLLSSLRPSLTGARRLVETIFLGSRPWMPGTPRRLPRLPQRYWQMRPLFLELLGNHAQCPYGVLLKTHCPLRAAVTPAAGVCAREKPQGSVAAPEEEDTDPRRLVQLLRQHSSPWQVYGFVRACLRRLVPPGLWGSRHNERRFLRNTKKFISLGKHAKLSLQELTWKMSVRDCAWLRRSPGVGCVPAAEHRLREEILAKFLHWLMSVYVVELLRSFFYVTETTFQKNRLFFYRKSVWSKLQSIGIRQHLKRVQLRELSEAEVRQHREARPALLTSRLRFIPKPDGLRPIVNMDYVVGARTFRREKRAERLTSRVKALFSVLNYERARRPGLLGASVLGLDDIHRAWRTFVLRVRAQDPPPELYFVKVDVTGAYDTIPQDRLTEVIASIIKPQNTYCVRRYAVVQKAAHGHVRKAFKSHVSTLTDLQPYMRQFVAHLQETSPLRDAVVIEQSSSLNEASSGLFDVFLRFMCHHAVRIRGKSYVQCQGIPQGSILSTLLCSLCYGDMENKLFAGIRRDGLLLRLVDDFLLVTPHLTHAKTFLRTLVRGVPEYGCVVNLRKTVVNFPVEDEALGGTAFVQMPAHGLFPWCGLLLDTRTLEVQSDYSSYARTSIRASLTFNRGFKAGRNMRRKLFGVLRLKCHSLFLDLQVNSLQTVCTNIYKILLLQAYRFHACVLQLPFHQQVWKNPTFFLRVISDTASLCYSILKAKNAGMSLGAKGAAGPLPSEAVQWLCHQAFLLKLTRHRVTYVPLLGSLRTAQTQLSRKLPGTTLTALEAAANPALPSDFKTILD
T1 sequence (O60832 whole entry partner): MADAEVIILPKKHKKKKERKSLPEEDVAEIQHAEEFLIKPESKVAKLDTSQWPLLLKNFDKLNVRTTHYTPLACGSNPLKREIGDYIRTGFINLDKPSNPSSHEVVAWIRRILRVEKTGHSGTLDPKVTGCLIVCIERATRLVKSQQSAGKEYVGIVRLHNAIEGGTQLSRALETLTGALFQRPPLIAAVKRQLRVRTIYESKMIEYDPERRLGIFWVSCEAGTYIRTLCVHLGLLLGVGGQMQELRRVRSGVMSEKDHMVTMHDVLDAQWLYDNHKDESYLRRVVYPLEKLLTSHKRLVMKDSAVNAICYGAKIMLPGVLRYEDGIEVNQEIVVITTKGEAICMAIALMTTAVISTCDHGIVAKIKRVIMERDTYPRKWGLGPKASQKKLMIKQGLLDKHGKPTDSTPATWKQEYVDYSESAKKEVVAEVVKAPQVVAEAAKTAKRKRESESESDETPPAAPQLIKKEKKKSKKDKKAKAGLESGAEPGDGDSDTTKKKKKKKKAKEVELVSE
T1 sequence (Q9NX24 whole entry partner): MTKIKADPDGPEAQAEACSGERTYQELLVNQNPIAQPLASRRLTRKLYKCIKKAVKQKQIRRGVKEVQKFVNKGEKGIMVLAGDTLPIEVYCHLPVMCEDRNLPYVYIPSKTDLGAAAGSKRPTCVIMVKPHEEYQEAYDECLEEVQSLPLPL
T1 sequence (Q9NPE3 whole entry partner): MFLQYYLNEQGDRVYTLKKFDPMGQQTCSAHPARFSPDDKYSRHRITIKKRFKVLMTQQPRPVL
T1 sequence (Q9NY12 whole entry partner): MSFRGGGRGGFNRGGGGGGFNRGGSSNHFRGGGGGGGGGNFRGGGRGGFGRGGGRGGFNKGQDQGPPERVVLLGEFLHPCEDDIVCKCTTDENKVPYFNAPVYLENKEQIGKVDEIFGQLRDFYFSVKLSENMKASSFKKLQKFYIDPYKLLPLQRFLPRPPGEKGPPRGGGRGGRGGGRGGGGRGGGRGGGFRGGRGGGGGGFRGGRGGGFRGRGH
T1 sequence (Q9BUR4 whole entry partner): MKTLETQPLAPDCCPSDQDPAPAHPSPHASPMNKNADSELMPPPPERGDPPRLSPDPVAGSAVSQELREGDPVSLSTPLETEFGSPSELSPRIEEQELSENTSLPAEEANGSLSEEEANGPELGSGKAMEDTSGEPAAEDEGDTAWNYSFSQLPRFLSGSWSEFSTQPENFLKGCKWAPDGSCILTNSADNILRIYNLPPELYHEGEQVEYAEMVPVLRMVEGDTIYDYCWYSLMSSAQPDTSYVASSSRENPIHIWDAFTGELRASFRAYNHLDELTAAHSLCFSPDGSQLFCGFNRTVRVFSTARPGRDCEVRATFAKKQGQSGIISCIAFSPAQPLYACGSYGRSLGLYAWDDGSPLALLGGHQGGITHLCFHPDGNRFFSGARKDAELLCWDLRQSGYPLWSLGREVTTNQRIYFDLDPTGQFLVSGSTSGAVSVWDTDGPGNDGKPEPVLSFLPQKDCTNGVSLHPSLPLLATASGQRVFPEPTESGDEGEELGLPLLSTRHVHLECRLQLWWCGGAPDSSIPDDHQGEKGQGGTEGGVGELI

melting point	IC50 (telomerase)	IC90 (telomerase)	Structure (SMILES)
262 to 264 °C	4.8 ± 0.2 µM	32.8 ± 1.5 µM	N#C/C(=C\c1ccc(N2CCCCC2)cc1)C(=O)Nc1sc2c(c1C#N)CCCC2 [Compound 29b, (2E)-2-Cyano-N-(3-cyano-4,5,6,7-tetrahydro-1-benzothiophen-2-yl)-3-[4-(piperidin-1-yl)phenyl]prop-2-enamide]
233 to 235 °C	6.4 ± 0.2 µM	177 µM	COc1cc(/C=C(\C#N)C(=O)Nc2sc3c(c2C#N)CCC3)ccc1OCc1ccccc1 [Compound 32a, (2E)-3-[4-(Benzyloxy)-3-methoxyphenyl]-2-cyano-N-{3-cyano-4H,5H,6H-cyclopenta[b]thiophen-2-yl}prop-2-enamide]
354 to 356 °C	20.9 ± 0.7 µM	109 ± 3.2 µM	N#C/C(=C\c1ccc(C(F)(F)F)cc1)C(=O)Nc1sc2c(c1C#N)CCC2 [Compound 25a, (2E/2Z)-2-Cyano-N-{3-cyano-4H,5H,6H-cyclopenta[b]thiophen-2-yl}-3-[4-(trifluoromethyl)phenyl]prop-2-enamide]
256 to 258 °C	178 ± 3.3 µM	574 µM	Cc1nn(-c2ccccc2)cc1/C=C(\C#N)C(=O)Nc1sc2c(c1C#N)CCCC2 [Compound 33b, (2E)-2-Cyano-N-(3-cyano-4,5,6,7-tetrahydro-1-benzothiophen-2-yl)-3-(3-methyl-1-phenyl-1H-pyrazol-4-yl)prop-2-enamide]
219 to 221 °C	25.4 ± 1 µM	282 µM	N#C/C(=C\c1ccc2c(c1)OCO2)C(=O)Nc1sc2c(c1C#N)CCC2 [Compound 38a, (2E)-3-(2H-1,3-Benzodioxol-5-yl)-2-cyano-N-{3-cyano-4H,5H,6H-cyclopenta[b]thiophen-2-yl}prop-2-enamide]
226 to 228 °C	97.8 ± 2.6 µM	174 µM	N#C/C(=C\c1cccc2c1OCO2)C(=O)Nc1sc2c(c1C#N)CCCC2 [Compound 37b, (2E)-3-(2H-1,3-Benzodioxol-4-yl)-2-cyano-N-(3-cyano-4,5,6,7-tetrahydro-1-benzothiophen-2-yl)prop-2-enamide]
–	5.2 ± 0.2 µM	112 ± 3.6 µM	N#C/C(=C\c1ccc(N2CCOCC2)cc1)C(=O)Nc1sc2c(c1C#N)CCC2 [Compound 30a, (2E)-2-Cyano-N-{3-cyano-4H,5H,6H-cyclopenta[b]thiophen-2-yl}-3-[4-(morpholin-4-yl)phenyl]prop-2-enamide]
–	5.2 ± 0.2 µM	34.9 ± 1.6 µM	N#C/C(=C\c1ccc2ccccc2c1)C(=O)Nc1sc2c(c1C#N)CCC2 [Compound 36a, (2E)-2-Cyano-N-{3-cyano-4H,5H,6H-cyclopenta[b]thiophen-2-yl}-3-(naphthalen-2-yl)prop-2-enamide]
226 to 228 °C	189 ± 6.4 µM	1080 µM	N#C/C(=C\c1c[nH]nc1-c1ccccc1)C(=O)Nc1sc2c(c1C#N)CCC2 [Compound 34a, (2E)-2-Cyano-N-{3-cyano-4H,5H,6H-cyclopenta[b]thiophen-2-yl}-3-(3-phenyl-1H-pyrazol-4-yl)prop-2-enamide]
–	98.5 ± 3.8 µM	200 µM	CN1CCN(c2ccc(/C=C(\C#N)C(=O)Nc3sc4c(c3C#N)CCC4)cc2)CC1 [Compound 31a, (2E)-2-Cyano-N-{3-cyano-4H,5H,6H-cyclopenta[b]thiophen-2-yl}-3-[4-(4-methylpiperazin-1-yl)phenyl]prop-2-enamide]
204 to 206 °C	40.3 ± 1.7 µM	339 µM	N#C/C(=C\c1ccc2c(c1)OCO2)C(=O)Nc1sc2c(c1C#N)CCCC2 [Compound 38b, (2E)-3-(2H-1,3-Benzodioxol-5-yl)-2-cyano-N-(3-cyano-4,5,6,7-tetrahydro-1-benzothiophen-2-yl)prop-2-enamide]
284 to 286 °C	2.5 ± 0.1 µM	9.5 ± 0.3 µM	N#C/C(=C\c1c[nH]c2ccccc12)C(=O)Nc1sc2c(c1C#N)CCC2 [Compound 39a, (2E)-2-Cyano-N-{3-cyano-4H,5H,6H-cyclopenta[b]thiophen-2-yl}-3-(1H-indol-3-yl)prop-2-enamide]
–	53.6 ± 1.8 µM	751 µM	COc1ccc(/C=C(\C#N)C(=O)Nc2sc3c(c2C#N)CCCC3)cc1OC [Compound 26b, (2E)-2-Cyano-N-(3-cyano-4,5,6,7-tetrahydro-1-benzothiophen-2-yl)-3-(3,4-dimethoxyphenyl)prop-2-enamide]
376 to 378 °C	12.5 ± 0.6 µM	138 µM	N#C/C(=C\c1ccc(Cl)c(Cl)c1)C(=O)Nc1sc2c(c1C#N)CCCC2 [Compound 27b, (2E/2Z)-2-Cyano-N-(3-cyano-4,5,6,7-tetrahydro-1-benzothiophen-2-yl)-3-(3,4-dichlorophenyl)prop-2-enamide]
263 to 265 °C	38.8 ± 1 µM	284 ± 6.6 µM	N#C/C(=C\c1c[nH]nc1-c1ccccc1)C(=O)Nc1sc2c(c1C#N)CCCC2 [Compound 34b, (2E)-2-Cyano-N-(3-cyano-4,5,6,7-tetrahydro-1-benzothiophen-2-yl)-3-(3-phenyl-1H-pyrazol-4-yl)prop-2-enamide]
232 to 234 °C	8.3 ± 0.3 µM	57.4 µM	N#C/C(=C\c1cccc(Cl)c1Cl)C(=O)Nc1sc2c(c1C#N)CCCC2 [Compound 28b, (2E)-2-Cyano-N-(3-cyano-4,5,6,7-tetrahydro-1-benzothiophen-2-yl)-3-(2,3-dichlorophenyl)prop-2-enamide]
–	13.5 ± 0.6 µM	154 µM	COc1ccc(/C=C(\C#N)C(=O)Nc2sc3c(c2C#N)CCC3)cc1OC [Compound 26a, (2E)-2-Cyano-N-{3-cyano-4H,5H,6H-cyclopenta[b]thiophen-2-yl}-3-(3,4-dimethoxyphenyl)prop-2-enamide]
225 to 227 °C	25.8 ± 1 µM	140 ± 4.7 µM	N#C/C(=C\c1ccc(C(F)(F)F)cc1)C(=O)Nc1sc2c(c1C#N)CCCC2 [Compound 25b, (2E)-2-Cyano-N-(3-cyano-4,5,6,7-tetrahydro-1-benzothiophen-2-yl)-3-[4-(trifluoromethyl)phenyl]prop-2-enamide]
220 to 222 °C	110 ± 3.7 µM	181 µM	COc1cc(/C=C(\C#N)C(=O)Nc2sc3c(c2C#N)CCCC3)ccc1OCc1ccccc1 [Compound 32b, (2E)-3-[4-(Benzyloxy)-3-methoxyphenyl]-2-cyano-N-(3-cyano-4,5,6,7-tetrahydro-1-benzothiophen-2-yl)prop-2-enamide]
–	205 ± 4 µM	643 µM	Cc1nn(-c2ccccc2)cc1/C=C(\C#N)C(=O)Nc1sc2c(c1C#N)CCC2 [Compound 33a, (2E)-2-Cyano-N-{3-cyano-4H,5H,6H-cyclopenta[b]thiophen-2-yl}-3-(3-methyl-1-phenyl-1H-pyrazol-4-yl)prop-2-enamide]
–	5.1 ± 0.2 µM	31.1 ± 1.1 µM	N#C/C(=C\c1cccc2ccccc12)C(=O)Nc1sc2c(c1C#N)CCC2 [Compound 35a, (2E)-2-Cyano-N-{3-cyano-4H,5H,6H-cyclopenta[b]thiophen-2-yl}-3-(naphthalen-1-yl)prop-2-enamide]
–	5.3 ± 0.2 µM	18.6 ± 0.9 µM	N#C/C(=C\c1cccc2ccccc12)C(=O)Nc1sc2c(c1C#N)CCCC2 [Compound 35b, (2E)-2-Cyano-N-(3-cyano-4,5,6,7-tetrahydro-1-benzothiophen-2-yl)-3-(naphthalen-1-yl)prop-2-enamide]
